Values of other authors as cited in publication PMC6024615, “Effect of Biliary Drainage on the Toxicity and Toxicokinetics of Amanita exitialis in Beagles” (Toxins, 2018).

Tests used:
[1] = intravenous injection, general anesthesia, radioactivity; cited from earlier work
Protocol: In previous studies, the radioactivity of labeled amatoxins in the serum of dogs or pigs was determined after an intravenous injection of amatoxins; bile was collected and measured using tubes tied to the bile duct under general anesthesia. More than 80% of 14C-methyl-γ-amanitin (14C-A) was eliminated in the urine, with less than 10% in the bile. Different toxin exposure patterns might result in different toxicokinetic data. 14C-A and 3H-O-methyl-dehydroxymethyl-α-amanitin (3H-A) were used for toxicokinetic studies in the animals; the animals were under general anesthesia du ...

[2] = human and rats; cited from earlier work
Protocol: Vesconi et al. found amatoxins were detectable in the serum of 65% patients within 30 h after ingestion of Amanita phalloides. In another study in patients intoxicated with Amanita phalloides, amatoxins were detectable in the plasma of most patients within 36 h after ingestion. […] These toxins were rapidly detected (30 min) in plasma and ...

| Substance | share eliminated in the bile [1] | share eliminated in the urine [1] | reduction in absorption from the intestinal lumen caused by bile exclusion [2] |
| --- | --- | --- | --- |
| 14C-methyl-γ-amanitin | less than 10% | More than 80% |  |
| vitamin B12 |  |  | 50–60% |
